# Laboratory results reported in PubChem BioAssay (NCI).
#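 Step 1: Grow cells in 96-well plates. Step 2: Expose to compound for 48 hours at 5 concentrations. Step 3: Interpolate endpoints linearly; if unreached, use highest concentration. TGI marks complete inhibition of growth.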
# Experiments:
# Test in all cases: growth of human tumour cells (NCI), 48 h
# HOP-62 NSCLC = tested on: HOP-62 NSCLC
# OVCAR-3 ovarian = tested on: OVCAR-3 ovarian
# SK-MEL-5 melanoma = tested on: SK-MEL-5 melanoma
# MOLT-4 leukemia = tested on: MOLT-4 leukemia
# KM12 colon = tested on: KM12 colon
# SK-OV-3 ovarian = tested on: SK-OV-3 ovarian
# NCI-H460 lung = tested on: NCI-H460 lung
# MCF7 breast = tested on: MCF7 breast
# IGROV1 ovarian = tested on: IGROV1 ovarian
# ACHN renal = tested on: ACHN renal
# SF-539 CNS = tested on: SF-539 CNS
# M14 melanoma = tested on: M14 melanoma
# NCI-H522 lung = tested on: NCI-H522 lung
# MALME-3M melanoma = tested on: MALME-3M melanoma
# T-47D breast = tested on: T-47D breast
# UACC-257 melanoma = tested on: UACC-257 melanoma
# HCC-2998 colon = tested on: HCC-2998 colon
# MDA-MB-435 = tested on: MDA-MB-435
# SF-268 CNS = tested on: SF-268 CNS
# HL-60(TB) leukemia = tested on: HL-60(TB) leukemia
# NCI-H23 lung = tested on: NCI-H23 lung
# SK-MEL-28 melanoma = tested on: SK-MEL-28 melanoma
# RXF 393 renal = tested on: RXF 393 renal
# MDA-MB-231 breast = tested on: MDA-MB-231 breast
# A549 NSCLC = tested on: A549 NSCLC
# TK-10 renal = tested on: TK-10 renal
# UACC-62 melanoma = tested on: UACC-62 melanoma
# K-562 leukemia = tested on: K-562 leukemia
# NCI/ADR-RES ovarian = tested on: NCI/ADR-RES ovarian
# UO-31 renal = tested on: UO-31 renal
# A498 renal = tested on: A498 renal
# SN12C renal = tested on: SN12C renal
# SF-295 CNS = tested on: SF-295 CNS
# OVCAR-5 ovarian = tested on: OVCAR-5 ovarian
# HCT-15 colon = tested on: HCT-15 colon
# OVCAR-4 ovarian = tested on: OVCAR-4 ovarian
# EKVX NSCLC = tested on: EKVX NSCLC
# COLO 205 colon = tested on: COLO 205 colon
# HOP-92 NSCLC = tested on: HOP-92 NSCLC
# MDA-N = tested on: MDA-N
# OVCAR-8 ovarian = tested on: OVCAR-8 ovarian
# PC-3 prostate = tested on: PC-3 prostate
# LOX IMVI melanoma = tested on: LOX IMVI melanoma
# 786-0 renal = tested on: 786-0 renal
# RPMI-8226 leukemia = tested on: RPMI-8226 leukemia
# U251 CNS = tested on: U251 CNS
# CAKI-1 renal = tested on: CAKI-1 renal
# DU-145 prostate = tested on: DU-145 prostate
# SK-MEL-2 melanoma = tested on: SK-MEL-2 melanoma
# BT-549 breast = tested on: BT-549 breast
# SNB-19 CNS = tested on: SNB-19 CNS
# CCRF-CEM leukemia = tested on: CCRF-CEM leukemia
# NCI-H226 lung = tested on: NCI-H226 lung
# HS 578T breast = tested on: HS 578T breast
# SW-620 colon = tested on: SW-620 colon
# HCT-116 colon = tested on: HCT-116 colon
# HT29 colon = tested on: HT29 colon
# SR leukemia = tested on: SR leukemia
smiles,measurement,setting,value
C=CCCCCOC1C=CC(O)C(CO)O1 (stereo not drawn),TGI,HOP-62 NSCLC,> 100 µM
same,TGI,OVCAR-3 ovarian,> 100 µM
same,TGI,SK-MEL-5 melanoma,> 100 µM
same,TGI,MOLT-4 leukemia,> 100 µM
same,TGI,KM12 colon,> 100 µM
same,TGI,SK-OV-3 ovarian,> 100 µM
same,TGI,NCI-H460 lung,> 100 µM
same,TGI,MCF7 breast,> 100 µM
same,TGI,IGROV1 ovarian,> 100 µM
same,TGI,ACHN renal,> 100 µM
same,TGI,SF-539 CNS,> 100 µM
same,TGI,M14 melanoma,> 100 µM
same,TGI,NCI-H522 lung,> 100 µM
same,TGI,MALME-3M melanoma,> 100 µM
same,TGI,T-47D breast,> 100 µM
same,TGI,UACC-257 melanoma,> 100 µM
same,TGI,HCC-2998 colon,> 100 µM
same,TGI,MDA-MB-435,> 100 µM
same,TGI,SF-268 CNS,> 100 µM
same,TGI,HL-60(TB) leukemia,> 100 µM
same,TGI,NCI-H23 lung,> 100 µM
same,TGI,SK-MEL-28 melanoma,> 100 µM
same,TGI,RXF 393 renal,> 100 µM
same,TGI,MDA-MB-231 breast,> 100 µM
same,TGI,A549 NSCLC,> 100 µM
same,TGI,TK-10 renal,> 100 µM
same,TGI,UACC-62 melanoma,> 100 µM
same,TGI,K-562 leukemia,> 100 µM
same,TGI,NCI/ADR-RES ovarian,> 100 µM
same,TGI,UO-31 renal,> 100 µM
same,TGI,A498 renal,> 100 µM
same,TGI,SN12C renal,> 100 µM
same,TGI,SF-295 CNS,> 100 µM
same,TGI,OVCAR-5 ovarian,> 100 µM
same,TGI,HCT-15 colon,> 100 µM
same,TGI,OVCAR-4 ovarian,> 100 µM
same,TGI,EKVX NSCLC,> 100 µM
same,TGI,COLO 205 colon,> 100 µM
same,TGI,HOP-92 NSCLC,> 100 µM
same,TGI,MDA-N,> 100 µM
same,TGI,OVCAR-8 ovarian,> 100 µM
same,TGI,PC-3 prostate,> 100 µM
same,TGI,LOX IMVI melanoma,> 100 µM
same,TGI,786-0 renal,> 100 µM
same,TGI,RPMI-8226 leukemia,> 100 µM
same,TGI,U251 CNS,> 100 µM
same,TGI,CAKI-1 renal,> 100 µM
same,TGI,DU-145 prostate,> 100 µM
same,TGI,SK-MEL-2 melanoma,> 100 µM
same,TGI,BT-549 breast,> 100 µM
same,TGI,SNB-19 CNS,> 100 µM
same,TGI,CCRF-CEM leukemia,> 100 µM
same,TGI,NCI-H226 lung,> 100 µM
same,TGI,HS 578T breast,> 100 µM
same,TGI,SW-620 colon,> 100 µM
same,TGI,HCT-116 colon,> 100 µM
same,TGI,HT29 colon,> 100 µM
S=C(N1CCN(c2cccc(Cl)c2)CC1)N1CCN(c2cccc(Cl)c2)CC1,TGI,HOP-62 NSCLC,> 100 µM
same,TGI,OVCAR-3 ovarian,> 100 µM
same,TGI,SK-MEL-5 melanoma,> 100 µM
same,TGI,MOLT-4 leukemia,64.1 µM
same,TGI,KM12 colon,61.7 µM
same,TGI,SK-OV-3 ovarian,> 100 µM
same,TGI,MCF7 breast,> 100 µM
same,TGI,IGROV1 ovarian,> 100 µM
same,TGI,ACHN renal,> 100 µM
same,TGI,M14 melanoma,> 100 µM
same,TGI,NCI-H522 lung,> 100 µM
same,TGI,MALME-3M melanoma,71.4 µM
same,TGI,T-47D breast,> 100 µM
same,TGI,UACC-257 melanoma,> 100 µM
same,TGI,HCC-2998 colon,36.1 µM
same,TGI,MDA-MB-435,> 100 µM
same,TGI,SF-268 CNS,> 100 µM
same,TGI,NCI-H23 lung,> 100 µM
same,TGI,SK-MEL-28 melanoma,> 100 µM
same,TGI,RXF 393 renal,> 100 µM
same,TGI,MDA-MB-231 breast,58.8 µM
same,TGI,A549 NSCLC,> 100 µM
same,TGI,TK-10 renal,> 100 µM
same,TGI,UACC-62 melanoma,> 100 µM
same,TGI,SR leukemia,32.4 µM
same,TGI,K-562 leukemia,> 100 µM
same,TGI,NCI/ADR-RES ovarian,> 100 µM
same,TGI,UO-31 renal,86.1 µM
same,TGI,SF-295 CNS,> 100 µM
same,TGI,OVCAR-5 ovarian,> 100 µM
same,TGI,HCT-15 colon,> 100 µM
same,TGI,OVCAR-4 ovarian,> 100 µM
same,TGI,EKVX NSCLC,> 100 µM
same,TGI,COLO 205 colon,68 µM
same,TGI,MDA-N,> 100 µM
same,TGI,OVCAR-8 ovarian,> 100 µM
same,TGI,PC-3 prostate,> 100 µM
same,TGI,786-0 renal,> 100 µM
same,TGI,RPMI-8226 leukemia,> 100 µM
same,TGI,U251 CNS,> 100 µM
same,TGI,CAKI-1 renal,83.7 µM
same,TGI,DU-145 prostate,> 100 µM
same,TGI,SK-MEL-2 melanoma,> 100 µM
same,TGI,BT-549 breast,> 100 µM
same,TGI,SNB-19 CNS,> 100 µM
same,TGI,CCRF-CEM leukemia,27.8 µM
same,TGI,NCI-H226 lung,88.4 µM
same,TGI,HS 578T breast,66.6 µM
same,TGI,SW-620 colon,> 100 µM
same,TGI,HCT-116 colon,> 100 µM
same,TGI,HT29 colon,> 100 µM
